{"source": "ChEMBL document CHEMBL1155437", "about": "“Anti-infective discorhabdins from a deep-water alaskan sponge of the genus Latrunculia” (J Nat Prod, 2010)", "key": {"[1]": {"test_system": "Mycobacterium intracellulare", "experiment": "Antibacterial activity against Mycobacterium intracellular by after 4 days alamar blue assay", "assay_type": "functional, organism-based", "conditions": "for pIC50: read-out: IC50"}, "[2]": {"test_system": "Staphylococcus aureus", "experiment": "Antibacterial activity against methicillin-resistant Staphylococcus aureus by modified NCCLS method", "assay_type": "functional, organism-based"}, "[3]": {"test_system": "Vero", "experiment": "Cytotoxicity against african green monkey Vero cells by neutral red assay", "assay_type": "cell-based", "conditions": "Chlorocebus sabaeus"}, "[4]": {"test_system": "Mus musculus", "experiment": "Toxicity in Plasmodium berghei infected mice (Mus musculus) at 10 mg/kg, perorally or subcutaneously administered 2 hrs post infection", "assay_type": "organism-based", "design": "dose 10 mg/kg, route oral", "conditions": "in vivo, po"}, "[5]": {"test_system": "Mus musculus", "experiment": "Toxicity in Plasmodium berghei infected mice (Mus musculus) assessed as mortality at 10 mg/kg, perorally or subcutaneously QD for 2 days measured on day 3", "assay_type": "organism-based", "design": "dose 10 mg/kg, route oral", "conditions": "in vivo, po, 48 h"}, "[6]": {"test_system": "Mus musculus", "experiment": "Toxicity in Plasmodium berghei infected mice (Mus musculus) assessed as reduction of movements at 10 mg/kg, perorally or subcutaneously QD on day 1", "assay_type": "organism-based", "design": "dose 10 mg/kg, route oral", "conditions": "in vivo, po"}, "[7]": {"test_system": "Mus musculus", "experiment": "Toxicity in Plasmodium berghei infected mice (Mus musculus) assessed as dehydration at 10 mg/kg, perorally or subcutaneously QD on day 1", "assay_type": "organism-based", "design": "dose 10 mg/kg, route oral", "conditions": "in vivo, po"}, "[8]": {"test_system": "Mus musculus", "experiment": "Toxicity in Plasmodium berghei infected mice (Mus musculus) assessed as loss of weight at 10 mg/kg, perorally or subcutaneously QD on day 1", "assay_type": "organism-based", "design": "dose 10 mg/kg, route oral", "conditions": "in vivo, po"}, "[9]": {"experiment": "Selectivity index, ratio of IC50 for african green monkey (Cercopithecus aethiops) Vero cells to IC50 for chloroquine-resistant Plasmodium falciparum W2", "assay_type": "toxicity, cell-based", "conditions": "read-out: Ratio IC50"}, "[10]": {"test_system": "Hepatitis C virus", "experiment": "Antiviral activity against HCV infected in human HuH7 clone B cells assessed as inhibition of viral RNA replication after 5 days by RT-PCR based replicon assay relative to control", "assay_type": "functional, Hepacivirus hominis", "conditions": "Huh-7, 120 h"}, "[11]": {"experiment": "Selectivity index, ratio of IC50 for african green monkey (Cercopithecus aethiops) Vero cells to IC50 for chloroquine-sensitive Plasmodium falciparum D6", "assay_type": "toxicity, cell-based", "conditions": "read-out: Ratio IC50"}, "[12]": {"test_system": "Mycobacterium tuberculosis", "experiment": "Antituberculosis activity against Mycobacterium tuberculosis H37Rv after 4 days by alamar blue assay", "assay_type": "functional, organism-based", "conditions": "96 h"}, "[13]": {"test_system": "Plasmodium falciparum", "experiment": "Antimalarial activity against chloroquine-resistant Plasmodium falciparum W2 assessed as parasite LDH activity after 72 hrs by malstat reagent method", "assay_type": "functional, organism-based", "conditions": "W2, 72 h"}, "[14]": {"test_system": "Plasmodium falciparum", "experiment": "Antimalarial activity against chloroquine-sensitive Plasmodium falciparum D6 assessed as parasite LDH activity after 72 hrs by malstat reagent method", "assay_type": "functional, organism-based", "conditions": "D6, 72 h"}, "[15]": {"test_system": "Mus musculus", "experiment": "Toxicity in Plasmodium berghei infected mice (Mus musculus) assessed as mortality at 10 mg/kg, perorally or subcutaneously QD for 2 days measured on day 4", "assay_type": "organism-based", "design": "dose 10 mg/kg, route oral", "conditions": "in vivo, po, 48 h"}, "[16]": {"experiment": "Cytotoxicity against human HuH7 cells at 10 uM after 5 days by RT-PCR", "assay_type": "cell-based", "conditions": "huh-7, 120 h"}, "[17]": {"test_system": "Plasmodium berghei", "experiment": "Antimalarial activity against Plasmodium berghei infected in mice (Mus musculus) assessed as parasitaemia at 10 mg/kg, perorally or subcutaneously administered 2 hrs post infection daily for 2 days measured on day 5 by microscopy", "assay_type": "functional", "conditions": "route oral"}, "[18]": {"test_system": "Mus musculus", "experiment": "Toxicity in Plasmodium berghei infected mice (Mus musculus) assessed as loss of weight at 10 mg/kg, perorally or subcutaneously QD for 2 days measured on day 5", "assay_type": "organism-based", "design": "dose 10 mg/kg, route oral", "conditions": "in vivo, po, 48 h"}, "[19]": {"test_system": "Mus musculus", "experiment": "Toxicity in Plasmodium berghei infected mice (Mus musculus) at 10 mg/kg, perorally or subcutaneously QD for 2 days measured on day 5", "assay_type": "organism-based", "design": "dose 10 mg/kg, route oral", "conditions": "in vivo, po, 48 h"}, "[20]": {"test_system": "Mus musculus", "experiment": "Toxicity in Plasmodium berghei infected mice (Mus musculus) at 10 mg/kg, perorally or subcutaneously QD for 2 days measured on day 2", "assay_type": "organism-based", "design": "dose 10 mg/kg, route oral", "conditions": "in vivo, po, 48 h"}, "[21]": {"conditions": "Mycobacterium intracellulare, 96 h"}}, "note": "pIC50: −log10 of the molar value. The source made the active and inactive calls. The rule behind the calls is not given here."}
{"smiles": "O=C(O)c1cn(C2CC2)c2cc(N3CCNCC3)c(F)cc2c1=O", "note": "[CIPROFLOXACIN]", "values": [{"measurement": "MIC", "setting": "[1]; [21]", "result": 1.5, "unit": "µM"}, {"measurement": "pIC50", "setting": "[2]", "result": 5.96}, {"measurement": "MIC", "setting": "[2]", "result": 3, "unit": "µM"}]}
{"smiles": "O=C1C2=C(C3=NCCc4c[nH]c1c43)C1(C=C(Br)C(O)C(Br)=C1)CCN2", "note": "(configuration not stated) [DIHYDRODISCORHABDIN C]", "values": [{"measurement": "pIC50", "setting": "[3]", "result": 5.01}, {"measurement": "Activity", "setting": "[4]", "result": "Non-toxic"}, {"measurement": "Activity", "setting": "[5]", "result": "Toxic"}, {"measurement": "Activity", "setting": "[6]", "result": "Toxic"}, {"measurement": "Activity", "setting": "[7]", "result": "Toxic"}, {"measurement": "Activity", "setting": "[8]", "result": "Toxic"}, {"measurement": "selectivity ratio", "setting": "[9]", "result": 75}, {"measurement": "EC90", "setting": "[10]", "result": "< 10000", "unit": "nM"}, {"measurement": "selectivity ratio", "setting": "[11]", "result": 58}, {"measurement": "MIC", "setting": "[12]", "result": 14, "unit": "µM"}, {"measurement": "pIC50", "setting": "[13]", "result": 6.89}, {"measurement": "pIC50", "setting": "[14]", "result": 6.77}, {"measurement": "Activity", "setting": "[15]", "result": "Toxic"}, {"measurement": "Activity", "setting": "[16]", "result": "Active"}, {"measurement": "IC50", "setting": "[1]", "result": "Not Active"}, {"measurement": "MIC", "setting": "[1]", "result": "inactive"}, {"measurement": "pIC50", "setting": "[2]", "result": 4.89}]}
{"smiles": "O=C1C(Br)=CC2(C=C1Br)CCNC1=C2C2=NCCc3c[nH]c(c32)C1=O", "note": "[DISCORHABDIN C]", "values": [{"measurement": "pIC50", "setting": "[3]", "result": 5.55}, {"measurement": "selectivity ratio", "setting": "[9]", "result": 1.4}, {"measurement": "EC90", "setting": "[10]", "result": "< 10000", "unit": "nM"}, {"measurement": "selectivity ratio", "setting": "[11]", "result": 1}, {"measurement": "pIC50", "setting": "[12]", "result": 5.17}, {"measurement": "MIC", "setting": "[12]", "result": 8, "unit": "µM"}, {"measurement": "pIC50", "setting": "[13]", "result": 5.70}, {"measurement": "pIC50", "setting": "[14]", "result": 5.55}, {"measurement": "Activity", "setting": "[16]", "result": "Active"}, {"measurement": "MIC", "setting": "[1]; [21]", "result": 0.17, "unit": "µM"}, {"measurement": "pIC50", "setting": "[1]; [21]", "result": 6.89}, {"measurement": "pIC50", "setting": "[2]", "result": 5.49}, {"measurement": "MIC", "setting": "[2]", "result": 11, "unit": "µM"}]}
{"smiles": "O=C1C[C@H]2S[C@H]3C[C@]2(C=C1Br)C1=C(N3)C(=O)c2[nH]cc3c2C1=NCC3", "note": "[DISCORHABDINE A]", "values": [{"measurement": "pIC50", "setting": "[3]", "result": 5.17}, {"measurement": "Activity", "setting": "[4]", "result": "Non-toxic"}, {"measurement": "Activity", "setting": "[17]", "result": 6.6, "unit": "%"}, {"measurement": "selectivity ratio", "setting": "[9]", "result": 130}, {"measurement": "Activity", "setting": "[18]", "result": "> 25", "unit": "%"}, {"measurement": "Activity", "setting": "[19]", "result": "Toxic"}, {"measurement": "EC90", "setting": "[10]", "result": "< 10000", "unit": "nM"}, {"measurement": "selectivity ratio", "setting": "[11]", "result": 130}, {"measurement": "MIC", "setting": "[12]", "result": 7.7, "unit": "µM"}, {"measurement": "pIC50", "setting": "[13]", "result": 7.28}, {"measurement": "pIC50", "setting": "[14]", "result": 7.28}, {"measurement": "Activity", "setting": "[20]", "result": "Toxic"}, {"measurement": "Activity", "setting": "[16]", "result": "Active"}, {"measurement": "MIC", "setting": "[1]; [21]", "result": 0.74, "unit": "µM"}, {"measurement": "pIC50", "setting": "[1]; [21]", "result": 6.44}, {"measurement": "pIC50", "setting": "[2]", "result": 5.32}, {"measurement": "MIC", "setting": "[2]", "result": 12, "unit": "µM"}]}
{"smiles": "NNC(=O)c1ccncc1", "note": "[ISONIAZID]", "values": [{"measurement": "MIC", "setting": "[12]", "result": 3.2, "unit": "µM"}]}
{"smiles": "CO[C@H]1/C=C/O[C@@]2(C)Oc3c(C)c(O)c4c(O)c(c(/C=N/N5CCN(C)CC5)c(O)c4c3C2=O)NC(=O)/C(C)=C\\C=C\\[C@H](C)[C@H](O)[C@@H](C)[C@@H](O)[C@@H](C)[C@H](OC(C)=O)[C@@H]1C", "note": "[RIFAMPIN]", "values": [{"measurement": "MIC", "setting": "[12]", "result": 0.21, "unit": "µM"}]}
